What all share (type): cell-based
The test system of experiment [1] is RKOp21 (human colon adenocarcinoma) cells. Nature of the experiment: XTT cytotoxicity assay, RKOp21 cells. The note with it: Homo sapiens; XTT, 48 h exposure; read-out: RKOp21 [IC50 (μM)]. On the procedure: (§1) Cytotoxicity of selected compounds of the invention against different mammalian cell lines was assessed as follows.
(§2) Human tumor cell lines KB/HeLa (ATCC CCL17, human cervix carcinoma), PC3 (ATCC CRL1435, human prostate carcinoma) and RKOp21 (human colon adenocarcinoma; Schmidt et al., Oncogene 2000, 19: 2423-2429) cells were used in an automated XTT screening assay for the assessment of cytotoxicity.
(§3) The XTT assay quantifies cellular metabolic activity which correlates with cell viability and cell number. Test compounds (selected compounds of the invention and known substances as controls) are dissolved in culture medium at 600 μM and added to the tumor cells in 10 different concentrations in a semi-logarithmic fashion starting from 100 μM as highest concentration.
(§4) In a second set of experiments employing PC3, RKOp21 and SKOV-3 (ATCC HTB-77, human ovary adenocarcinoma) cells, test and reference compounds were dissolved in 70% Ethanol/30% H2O in a stock concentration of 10 mM and diluted in cell culture medium to yield either 31.6 μM (PC3 and RKOp21) or 100 μM (SKOV-3) final concentration.
(§5) 48 h later cellular metabolic activity of cells treated with test compounds is quantified by measurement of the absorbance at 490 nm (conversion of XTT dye) in comparison to untreated control cells (100% viability).
(§6) KB/HeLa and PC3 cells were cultivated in RPMI 1640 medium (Gibco, Cat. No. 42401-018) supplemented with 10% heat inactivated fetal calf serum (FCS, Biochrom AG, Cat. No. S0115), 2 mM L-glutamine (Gibco, Cat. No. 25030-24) and 2% Penicillin-Streptomycin (PenStrep, Gibco, Cat. No. 15140-122). RKOp21 cells were grown in DMEM+GlutaMAXTM-I medium (Gibco, Cat. No. 61965-026) supplemented with 10% heat inactivated fetal calf serum (FCS, Biochrom AG, Cat. No. S0115), 2 mM L-glutamine (Gibco, Cat. No. 25030-24), 2% Penicillin-Streptomycin (PenStrep, Gibco, Cat. No. 15140-122) and 1% 1M HEPES (Gibco, Cat. No. 15630-056). All cells were cultured at 37° C. in 5% CO2 humidified air.
(§7) On the first day of the experiment cells were harvested from exponential phase cultures by trypsination, counted and plated into 96 well flat-bottom micro titer plates depending on the cell line as listed below:
(§8) After a 24 h recovery to allow the cells to resume exponential growth, the test compounds were diluted immediately prior to use and transferred in 25 μl volume to the wells.
(§9) Following 2 days of continuous drug exposure 50 μl of freshly prepared XTT-PMS solution {2% 0.386 mg/ml PMS (N-Methyl Dibenzopyrazine Methylsulphate; Sigma, Cat. No. P9625) in PBS+98% 1 mg/ml XTT (Sodium 2,3-bis(2-methoxy-4-nitro-5-sulfophenyl)-5-[(phenylamino)carbonyl]-2H-Tetrazolium; Serva, Cat. No. 38450) in RPMI 1640 medium without phenol red} was added to the wells. To measure the proportion of living cells, the cells were incubated for 3 h with XTT-PMS reagent at 37° C., 5% CO2, humidified atmosphere allowing to form the formazan salt. The amount of soluble formazan salt produced by cellular reduction of XTT is quantified by measuring the absorbance at 490 nm using the Biomek® 2000 ELISA plate reader. %-inhibition (cytotoxicity) of each test compound was calculated in relation to untreated control cells. Inhibition curves were generated and IC50 values calculated by using GraphPad Prism.
A general note: Tetrazolium assays rely on reduction of a dye to a coloured formazan, in cell work by metabolically active cells.

Experiment [2] relates to PC3 (human prostate carcinoma) cells. Nature of the experiment: XTT cytotoxicity assay, PC3 cells. To be noted: Homo sapiens, PC-3; XTT, 48 h exposure; read-out: PC3 [IC50 (μM)]. The procedure: as §1, §2, §3, §4, §5, §6, §7, §8, §9
Experiment [3] deals with KB/HeLa (human cervix carcinoma) cells. Nature of the experiment: XTT cytotoxicity assay, KB/HeLa cells. To be noted: Homo sapiens, HeLa; XTT, 48 h exposure; read-out: KB/HELA [IC50 (μM)]. On the procedure:
as §1, §2, §3, §5, §6, §7, §8, §9

For `CC(C)CCCC(C)C1CCC2C3CCC4CC(OP(=O)([O-])OCC[N+](C)(C)C)CCC4(C)C3CCC12C` (stereo not drawn) [Compound 41], the IC50 in experiment [1], in experiment [2] and in experiment [3] was over 100 µM throughout.

For the molecule `CC(C)CCCC(C)C1CCC2C3CC=C4CC(OP(=O)([O-])OCC[N+](C)(C)C)CCC4(C)C3CCC12C` (stereo not drawn) [Compound 46], the IC50 in experiment [1], in experiment [2] and in experiment [3] was over 100 µM each time.

With `CC(C)CCCC(C)C1CCC2C3=CC=C4CC(OP(=O)([O-])OCC[N+](C)(C)C)CCC4(C)C3CCC21C` (stereo not drawn) [Compound 48], the IC50 in experiment [1], in experiment [2] and in experiment [3] was over 100 µM in each case.

Take `CCCCC/C=C\C/C=C\CCCCCCCCOP(=O)([O-])OCC[N+](C)(C)C` [Compound 55]: the IC50 in experiment [1], in experiment [2] and in experiment [3] was over 100 µM throughout.

On to `C[C@H](CCC(=O)O)[C@H]1CCC2[C@@H]3CC[C@@H]4C[C@H](OP(=O)([O-])OCC[N+](C)(C)C)CC[C@]4(C)[C@H]3CC[C@@]21C` (stereo partly drawn) [Compound 59], for which the IC50 in experiment [1], in experiment [2] and in experiment [3] was over 100 µM in each case.

With `CCCCCCCCCCCCCCCCOP(=O)(O)OCCN1CCOCC1` [Compound 60], the IC50 in experiment [1], in experiment [2] and in experiment [3] was over 100 µM each time.

As to `CCCCCCCCCCCCCCCCOP(=O)(O)OCCN1CCCC1` [Compound 63], the IC50 in experiment [1], in experiment [2] and in experiment [3] was over 100 µM each time.

Take `CCCCCCCCCCCCCCCCOP(=O)([O-])OC1C[N+]2(C)CCC1CC2` (stereo not drawn) [Compound 76]: the IC50 was 68.8 µM in experiment [1], 25 µM in experiment [2] and 11.3 µM in experiment [3].

For `CCCCCCCC/C=C\CCCCCCCCOP(=O)([O-])OCC[N+](C)(C)CC` [Compound 82], the IC50 in experiment [1] was 20.5 µM; in experiment [2], 45.6 µM; in experiment [3] it was 37.7 µM.

Turning to `CCCCCCCCCCCCCCCCCCCCOP(=O)([O-])OC1CCC[N+](C)(C)CC1` (stereo not drawn) [Compound 86], the IC50 is over 100 µM in experiment [1], over 100 µM in experiment [2] and 75.6 µM in experiment [3].

Regarding `CCCCCCCC/C=C\CCCCCCCCOP(=O)([O-])OCC[N+]1(C)CCCC1` [Compound 91], the values for the IC50 in experiment [1], in experiment [2] and in experiment [3] were over 100 µM, 86.8 µM and over 100 µM, respectively.

Consider `CCCCCCCC/C=C\CCCCCCCCOP(=O)([O-])OCC[N+]1(C)CCCCC1` [Compound 97], for which the IC50 in experiment [1] was 89.4 µM; in experiment [2] it was 49.4 µM; in experiment [3], over 100 µM.

Regarding `CCCCCCCCCCOCCOCCOP(=O)([O-])OCC[N+](C)(C)C` [Compound 123], the values for the IC50 in experiment [1], in experiment [2] and in experiment [3] were 76.6 µM, 21.8 µM and 39.1 µM, respectively.

For `CCCCCCCC/C=C\CCCCCCCCCCCCOP(=O)([O-])OCC[N+]1(C)CCC(O)CC1` (stereo not drawn) [Compound 133], the IC50 is over 100 µM in experiment [1], 81.6 µM in experiment [2] and over 100 µM in experiment [3].

On to `CCCCCCCCC#CCCCCCCCCOP(=O)([O-])OCC[N+]1(C)CCCCC1` [Compound 145], for which the IC50 in experiment [1], in experiment [2] and in experiment [3] was over 100 µM throughout.

With `CCCCCCCCCCCCCCCCCCOP(=O)([O-])OCc1cccc[n+]1C` [Compound 147], the IC50 in experiment [1], in experiment [2] and in experiment [3] was over 100 µM in each case.

In the case of `CCCCCCCCCCCCCCCCCCOP(=O)([O-])OCC1CC[N+](C)(C)CC1` [Compound 152], the IC50 was over 100 µM in experiment [1], 23.9 µM in experiment [2] and 32.3 µM in experiment [3].

`CCCCCCCCCCCCCCCCOP(=O)([O-])OCC1CC[N+](C)(C)CC1` [Compound 153]: the IC50 in experiment [1] was over 100 µM; in experiment [2] it was 39.8 µM; in experiment [3], 38.2 µM.

For the molecule `CCCCCCCCCCCCCCCCCCOP(=O)([O-])OCCN1CC[N+](C)(C)CC1` [Compound 154], the IC50 came out at 77.4 µM in experiment [1], 18.2 µM in experiment [2] and 12.6 µM in experiment [3].
